Results taken from patent US20200071327A1, “Prodrugs for the Treatment of Disease” (Oppilan Pharma Ltd., priority 2017, published 2020).
pEC50: −log10 of the molar value.

Molecular target: T1, full-length human S1P1 (Homo sapiens, UniProt P21453)
T1 construct: CHO-K1 Gαqi5 cells expression full-length human S1P1; expressed in transfected cells; host or cells: CHO-K1 Gαqi5 cells (membrane preparation)
Assay: GTPγS binding assay (scintillation proximity assay) on S1P1 membranes
Assay type: biochemical
Conditions: membranes from CHO-K1 Gαqi5 cells expressing full-length human S1P1; GTPγ35S; 60 minutes incubation
Description: S1P1 membrane is prepared from CHO-K1 Gαqi5 cells expression full-length human S1P1. Scintillation proximity assay (SPA) is performed by incubating membranes, GTPγ^35S, and compound 11 at various concentrations for 60 minutes. Wheat germ agglutinin-coated SPA beads are added and incubated for 60 minutes before centrifugation and scintillation counting.

T1 sequence (P21453 whole entry): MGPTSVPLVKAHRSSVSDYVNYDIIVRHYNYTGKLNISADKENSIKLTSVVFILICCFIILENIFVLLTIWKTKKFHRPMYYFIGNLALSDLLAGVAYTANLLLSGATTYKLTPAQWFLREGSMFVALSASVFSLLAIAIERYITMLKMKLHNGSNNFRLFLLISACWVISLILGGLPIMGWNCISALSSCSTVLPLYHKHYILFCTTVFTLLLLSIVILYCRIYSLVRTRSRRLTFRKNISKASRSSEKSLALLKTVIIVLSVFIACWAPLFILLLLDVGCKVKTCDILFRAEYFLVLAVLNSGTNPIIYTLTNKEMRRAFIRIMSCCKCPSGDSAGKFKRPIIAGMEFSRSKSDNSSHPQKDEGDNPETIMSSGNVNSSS

pEC50: > 6.00
SMILES: O=C1CC[C@@H](Oc2cc(Cl)c(-c3noc(-c4cn5cc(C(F)(F)F)cc(Cl)c5n4)n3)cc2Cl)CN1 [compound 11, (R)-5-(2,5-diehloro-4-(5-(8-chloro-6-(trifluoromethyl)imidazo[1,2-a]pyridin-2-yl)-1,2,4-oxadiazol-3-yl)phenoxy)piperidin-2-one]
